Laboratory results reported in patent US12497405B2, “Bicyclic heterocycle compounds methods of use thereof for the treatment of herpes viruses” (Merck Sharp & Dohme LLC, priority 2019, dated 2025).

Tests used:
Assay type in all cases: cell-based
CMV = assay: Viral qPCR assay, CMV; settings: Human betaherpesvirus 5, 72 h, infected cells, viral genome copies by qPCR normalized to PPIA, read-out: CMV Cell EC50
Experimental: (§1) MRC5 cells, Vero cells, and MeWo cells were obtained from ATCC, and were maintained at 37° C./5% CO2/90% relative humidity in Minimal Essential Medium with 10% fetal bovine serum, […] L-glutamine, 100 units/ml penicillin and 100 ug/ml streptomycin. Assay plates were prepared by dispensing compounds dissolved in DMSO into wells of 384 well collagen-coated plates using an ECHO acoustic dispenser. Each test compound was tested in a 10-point, serial 3-fold dilution. Controls included uninfected cells and infected cells treated only with DMSO. Assays were initiated by mixing selected cells, in suspension, with virus, and dispensing 50 μl/well infected cells to pre-plated compounds. Plates were incubated at 37° C./5% CO2/90% relative humidity for ˜72 hrs to permit genomic replication, and infected cells were lysed by the addition of an equal volume of lysis buffer (10 mM Tris-HCl, pH8, 50 mM KCl, 2 mM MgCl2, 0.45% NP-40, 0.45% Tween-20, and 100 µg/ml proteinase K). An aliquot of the lysate was then transferred to a 384-well PCR plate and incubated at 56° C. for 1 hour, and then at 95° C. for 10 minutes. Levels of the selected viral gene and of the cellular control, PPIA, were measured in separate 10 μl qPCR assays using TaqMan® Gene Expression Master Mix (Applied Biosystems), and an 7900HT Fast Real-Time PCR System with 384-Well Block Module. 7-point, serial 10-fold dilutions of a plasmid standard were run on each plate to generate a standard curve, and genome copies numbers were calculated by plotting experimental Ct onto linear regression of the standard curve. Viral genome copy numbers were normalized by cellular control copy number, and compound effects were normalized to the window defined by the controls. Calculated % effects were fit using a 4-parameter algorithm, and EC50 was reported.

HSV2 = assay: Viral qPCR assay, HSV2; settings: Human alphaherpesvirus 2, 72 h, infected cells, viral genome copies by qPCR normalized to PPIA, read-out: HSV2 Cell EC50
Experimental: as §1

HSV1 = assay: Viral qPCR assay, HSV1; settings: Human alphaherpesvirus 1, 72 h, infected cells, viral genome copies by qPCR normalized to PPIA, read-out: HSV1 Cell EC50
Experimental: as §1

SMILES	EC50 (CMV) [µM]	EC50 (HSV2) [µM]	EC50 (HSV1) [µM]
Cc1nc2cc(-c3cnn(C(F)F)c3)c(O[C@H]3CCN4C(=O)OC[C@@H]4C3)cc2c(=O)n1Cc1ccc(Cl)c(CO)c1 [Example 155]	1.34	5.4	5.1
Cc1nc2cc(-c3cn4ccncc4n3)c(O[C@H]3CCN4C(=O)OC[C@@H]4C3)cc2c(=O)n1Cc1ccc(Cl)cc1 [Example 91]	0.479	0.602	0.527
O=C1OC[C@@H]2C[C@@H](Oc3cc4c(=O)n(Cc5ccc(Cl)cc5)c(CC5CCOCC5)nc4cc3-c3cnn(C(F)F)c3)CCN12 [Example 121]	0.299	0.128	0.188
O=C1OC[C@@H]2C[C@@H](Oc3cc4c(=O)n(Cc5ccc(Cl)cc5)c(OCCN5CCC5)nc4cc3-c3cnn(C(F)F)c3)CCN12 [Example 134]	0.119	0.098	0.171
Cc1nc2cc(-c3cnc(N)nn3)c(O[C@H]3CCN4C(=O)OC[C@@H]4C3)cc2c(=O)n1Cc1ccc(Cl)cc1 [Example 144]	0.137	0.319	0.189
Cc1nc2cc(-c3cn4ccnc4s3)c(O[C@H]3CCN4C(=O)OC[C@@H]4C3)cc2c(=O)n1Cc1ccc(Cl)cc1 [Example 16]	0.033	0.018	0.042
Cc1nc2cc(-c3cc4cnccn4c3)c(O[C@H]3CCN4C(=O)OC[C@@H]4C3)cc2c(=O)n1Cc1ccc(Cl)cc1 [Example 99]	0.272	0.077	0.118
O=C1OC[C@@H]2C[C@@H](Oc3cc4c(=O)n(Cc5ccc(Cl)cc5)c(CN5CCOCC5)nc4cc3-c3cnn(C(F)F)c3)CCN12 [Example 125]	4.25	1.28	3.83
Cc1nc2cc(-c3cnccn3)c(O[C@H]3CCN4C(=O)OC[C@@H]4C3)cc2c(=O)n1Cc1ccc(Cl)cc1 [Example 122]	0.382	0.543	0.844
Cc1nc2cc(-c3nc4ncccn4n3)c(O[C@H]3CCN4C(=O)OC[C@@H]4C3)cc2c(=O)n1Cc1ccc(Cl)cc1 [Example 103]	0.083	0.055	0.055
Cc1cnnc(-c2cc3nc(C)n(Cc4ccc(Cl)cc4)c(=O)c3cc2O[C@H]2CCN3C(=O)OC[C@@H]3C2)c1 [Example 136]	0.826	2.15	1.72
CC(C)(O)Cc1nc2cc(-c3cnn(C(F)F)c3)c(O[C@H]3CCN4C(=O)OC[C@@H]4C3)cc2c(=O)n1Cc1ccc(Cl)cc1 [Example 140]	2.66	3.76	4.31
O=C1OC[C@@H]2C[C@@H](Oc3cc4c(=O)n(Cc5ccc(Cl)cc5)c(OC5CCOCC5)nc4cc3-c3cnn(C(F)F)c3)CCN12 [Example 126]	0.205	0.14	0.372
Cc1nc2cc(-c3cnc(OC4CCOCC4)nc3)c(O[C@H]3CCN4C(=O)OC[C@@H]4C3)cc2c(=O)n1Cc1ccc(Cl)cc1 [Example 109]	0.465	0.153	0.413
N#Cc1nc2cc(-c3cnn(C(F)F)c3)c(O[C@H]3CCN4C(=O)OC[C@@H]4C3)cc2c(=O)n1Cc1ccc(Cl)cc1 [Example 106]	0.143	0.073	0.102
Cc1nc2cc(-c3cnc(OC4CC4)nc3)c(O[C@H]3CCN4C(=O)OC[C@@H]4C3)cc2c(=O)n1Cc1ccc(Cl)cc1 [Example 114]	0.348	0.124	0.323
Cc1nc2cc(-c3ncccn3)c(O[C@H]3CCN4C(=O)OC[C@@H]4C3)cc2c(=O)n1Cc1ccc(Cl)cc1 [Example 119]	0.397	0.921	0.933
COc1ccc(-c2cc3nc(C)n(Cc4ccc(Cl)cc4)c(=O)c3cc2O[C@H]2CCN3C(=O)OC[C@@H]3C2)nc1 [Example 112]	0.142	0.081	0.148
Cc1nc2cc(-c3cnc(C(F)F)nc3)c(O[C@H]3CCN4C(=O)OC[C@@H]4C3)cc2c(=O)n1Cc1ccc(Cl)cc1 [Example 124]	0.163	0.12	0.198
